US20070179060A1, “6-(Poly-substituted aryl)-4-aminopicolinates and their use as herbicides” (priority 2006, published 2007)

Tests used:
[1] = system: Hordeum vulgare (winter barley); experiment: Postemergence herbicidal safening in cereal crops; format: in vivo; details: Table 5, applied alone, after 3 weeks
Procedure: (§1) Seeds of the desired test plant species were planted in Sun Gro MetroMix® 306 planting mixture, which typically has a pH of 6.0 to 6.8 and an organic matter content of about 30 percent, in plastic pots with a surface area of 103.2 square centimeters. When required to ensure good germination and healthy plants, a fungicide treatment and/or other chemical or physical treatment was applied. The plants were grown for 7-36 days in a greenhouse with an approximate 14 hour photoperiod which was maintained at about 18° C. during the day and 17° C. during the night. Nutrients and water were added on a regular basis and supplemental lighting was provided with overhead metal halide 1000-Watt lamps as necessary. The plants were employed for testing when they reached the second or third true leaf stage. Treatments consisted of compound 42 and cloquintocet-mexyl alone and in combination. Weighed amounts were placed in 25 mL glass vials and dissolved in a volume of 97:3 v/v acetone/DMSO to obtain 9 mg ai/mL stock solutions. […] A dilution solution was prepared by mixing 1 volume of 97:3 v/v acetone/DMSO and 2 volumes of an aqueous mixture containing acetone, water, isopropyl alcohol, DMSO, Agri-dex crop oil concentrate, and Triton® X-77 surfactant in a 64.7:26.0:6.7:2.0:0.7:0.01 v/v ratio. Compound requirements are based upon a 12 mL application volume at a rate of 187 L/ha. […] Formulated compounds were applied to the plant material with an overhead Mandel track sprayer equipped with a […] nozzles calibrated to deliver 187 L/ha over an application area of 0.503 square meters at a spray height of 18 inches (43 cm) above average plant canopy height. Control plants were sprayed in the same manner with the solvent blank. The treated plants and control plants were placed in a greenhouse as described above and watered by sub-irrigation to prevent wash-off of the test compounds. After 3 weeks the condition of the test plants as compared with that of the untreated plants was determined visually and scored on a scale of 0 to 100 percent where 0 corresponds to no injury and 100 corresponds to complete kill. Colby's equation was used to determine the herbicidal effects expected from the mixtures (Colby, S. R. 1967. Calculation of the synergistic and antagonistic response of herbicide combinations. Weeds 15:20-22.). The following equation was used to calculate the expected activity of mixtures containing two active ingredients, A and B: Expected=A+B-(A×B/100) • A=observed efficacy of active ingredient A at the same concentration as used in the mixture. • B=observed efficacy of active ingredient B at the same concentration as used in the mixture.

[2] = system: Triticum aestivum (spring wheat); experiment: Postemergence herbicidal safening in cereal crops; format: in vivo; details: Table 5, applied alone, after 3 weeks
Procedure: as §1

Papaver rhoeas = experiment: Postemergence herbicidal safening in cereal crops; format: in vivo; details: Table 5, applied alone, after 3 weeks
Procedure: as §1

Galium aparine = experiment: Postemergence herbicidal safening in cereal crops; format: in vivo; details: Table 5, applied alone, after 3 weeks
Procedure: as §1

[3] = system: Hordeum vulgare (winter barley); experiment: Postemergence herbicidal activity of mixtures in cereal crops; format: in vivo; details: Table 6, applied alone, 35 g ai/ha, after 3 weeks
Procedure: (§2) Seeds of the desired test plant species were planted and reared as described in “Evaluation of Postemergence Herbicidal Safening in Cereal Crops” (section 37).
(§3) Treatments consisted of compound (as listed in Tables 6 and 7), fluroxypyr methylheptyl ester (MHE), and clopyralid monoethanolamine (MEA) salt alone and in combination. Weighed amounts were placed in 25 mL glass vials and dissolved in a volume of 97:3 v/v acetone/DMSO to obtain 4.5 mg ai/mL stock solutions. […] The concentrated stock solutions were diluted to 1.5 mg ai/mL with the addition of 2 volumes of an aqueous mixture containing acetone, water, isopropyl alcohol, DMSO, Agri-dex crop oil concentrate, and Triton® X-77 surfactant in a 64.7:26.0:6.7:2.0:0.7:0.01 v/v ratio. A dilution solution was prepared by mixing 1 volume of 97:3 v/v acetone/DMSO and 2 volumes of an aqueous mixture containing acetone, water, isopropyl alcohol, DMSO, Agri-dex crop oil concentrate, and Triton® X-77 surfactant in a 64.7:26.0:6.7:2.0:0.7:0.01 v/v ratio. Compound requirements are based upon a 12 mL application volume at a rate of 187 L/ha. Spray solutions of fluroxypyr MHE, clopyralid MEA, and experimental compound mixtures were prepared by adding the stock solutions to the appropriate amount of dilution solution to form 12 mL spray solution with active ingredients in two- and three-way combinations. Formulated compounds were applied to the plant material with an overhead Mandel track sprayer equipped with a 8002E nozzles calibrated to deliver 187 L/ha over an application area of 0.503 square meters at a spray height of 18 inches (43 cm) above average plant canope. Control plants were sprayed in the same manner with the solvent blank.
(§4) The treated plants and control plants were placed in a greenhouse as described above and watered by sub-irrigation to prevent wash-off of the test compounds. After 3 weeks the condition of the test plants as compared with that of the control plants was determined visually and scored on a scale of 0 to 100 percent where 0 corresponds to no injury and 100 corresponds to complete kill.
(§5) Colby's equation was used to determine the herbicidal effects expected from the mixtures (Colby, S. R. 1967. Calculation of the synergistic and antagonistic response of herbicide combinations. Weeds 15:20-22.).
(§6) The following equation was used to calculate the expected activity of mixtures containing two active ingredients, A and B: Expected=A+B−(A×B/100) • A=observed efficacy of active ingredient A at the same concentration as used in the mixture. • B=observed efficacy of active ingredient B at the same concentration as used in the mixture.
(§7) The following equation was used to calculate the expected activity of mixtures containing three active ingredients, A, B, and C: Expected=A+B+C−(A×B+B×C+A×C)/100+(A×B×C)/10000 • A=observed efficacy of active ingredient A at the same concentration as used in the mixture. • B=observed efficacy of active ingredient B at the same concentration as used in the mixture. • C=observed efficacy of active ingredient C at the same concentration as used in the mixture.

[4] = system: Triticum aestivum (spring wheat); experiment: as above; format: in vivo; details: Table 6, applied alone, 35 g ai/ha, after 3 weeks
Procedure: as §2, §3, §4, §5, §6, §7

Matricaria chamomilla = experiment: as above; format: in vivo; details: Table 6, applied alone, 35 g ai/ha, after 3 weeks
Procedure: as §2, §3, §4, §5, §6, §7

[5] = system: lambsquarter (Chenopodium album); experiment: Preemergence herbicidal activity; format: in vivo; details: Chenopodium album, pre-emergence, 480 h; pre-emergent, 140 g ai/ha, after 20-22 days; read-out: % Control CHEAL
In short: (§8)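 Seeds sown in 70:30 loam (pH about 8.1, about 1.5% organic matter) and sand mix, then sprayed preemergence at 187 L/ha with a track sprayer; controls received solvent blank. Pots kept in greenhouse, about 15 h photoperiod, about 23-29° C. day and 22-28° C. night, top-irrigated.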

[6] = system: redroot pigweed (Amaranthus retroflexus); experiment: Preemergence herbicidal activity; format: in vivo; details: Amaranthus retroflexus, pre-emergence, 480 h; pre-emergent, 140 g ai/ha, after 20-22 days; read-out: % Control AMARE
In short: as §8

[7] = system: velvetleaf (Abutilon theophrasti); experiment: Preemergence herbicidal activity; format: in vivo; details: Abutilon theophrasti, pre-emergence, 480 h; pre-emergent, 140 g ai/ha, after 20-22 days; read-out: % Control ABUTH
In short: as §8

[8] = system: lambsquarter (Chenopodium album); experiment: Postemergence herbicidal activity; format: in vivo; details: Chenopodium album, post-emergence, 336 h, post-emergent, 140 g ai/ha, after 14 days; read-out: % Control CHEAL
In short: (§9)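 Plants grown 7-21 days in greenhouse (about 15 h photoperiod, 23-29° C day, 22-28° C night) to first or second true leaf stage. Compounds in acetone/water/isopropanol/DMSO carrier with crop oil concentrate and Triton X-155 sprayed overhead at 187 L/ha; controls received solvent blank. Plants sub-irrigated afterwards; dose responses analysed by probit analysis.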

[9] = system: redroot pigweed (Amaranthus retroflexus); experiment: Postemergence herbicidal activity; format: in vivo; details: Amaranthus retroflexus, post-emergence, 336 h, post-emergent, 140 g ai/ha, after 14 days; read-out: % Control AMARE
In short: as §9

[10] = system: velvetleaf (Abutilon theophrasti); experiment: Postemergence herbicidal activity; format: in vivo; details: Abutilon theophrasti, post-emergence, 336 h, post-emergent, 140 g ai/ha, after 14 days; read-out: % Control ABUTH
In short: as §9

## CCCCCC(C)OC(=O)COc1ccc(Cl)c2cccnc12 (centres unmarked) [Cloquintocetmexyl, cloquintocet-mexyl]
[1]; 35 g ai/ha
  % Control HORVW Ob: 0%
[1]; 70 g ai/ha
  % Control HORVW Ob: 0%
[1]; 140 g ai/ha
  % Control HORVW Ob: 0%
[1]; 280 g ai/ha
  % Control HORVW Ob: 0%
[2]; 35 g ai/ha
  % Control TRZAS Ob: 0%
[2]; 70 g ai/ha
  % Control TRZAS Ob: 0%
[2]; 140 g ai/ha
  % Control TRZAS Ob: 0%
[2]; 280 g ai/ha
  % Control TRZAS Ob: 0%
Papaver rhoeas; 35 g ai/ha
  % Control PAPRH Ob: 0%
Papaver rhoeas; 70 g ai/ha
  % Control PAPRH Ob: 0%
Papaver rhoeas; 140 g ai/ha
  % Control PAPRH Ob: 0%
Papaver rhoeas; 280 g ai/ha
  % Control PAPRH Ob: 0%
Galium aparine; 35 g ai/ha
  % Control GALAP Ob: 0%
Galium aparine; 70 g ai/ha
  % Control GALAP Ob: 0%
Galium aparine; 140 g ai/ha
  % Control GALAP Ob: 0%
Galium aparine; 280 g ai/ha
  % Control GALAP Ob: 0%

## COc1c(C)cc(F)c(-c2cc(N)c(Cl)c(C(=O)O)n2)c1F [Compound 93, 4-Amino-3-chloro-6-(2,6-difluoro-3-methoxy-4-methylphenyl)pyridine-2-carboxylic acid]
[3]
  % Control HORVW Ob: 10%
[4]
  % Control TRZAS Ob: 15%
Matricaria chamomilla
  % Control MATCH Ob: 45%
other
  melting point: 167 to 168 °C
[5]
  pest or weed control at 140 g/ha: 100%
[6]
  pest or weed control at 140 g/ha: 100%
[7]
  pest or weed control at 140 g/ha: 100%
[8]
  pest or weed control at 140 g/ha: 100%
[9]
  pest or weed control at 140 g/ha: 100%
[10]
  pest or weed control at 140 g/ha: 100%
